Reference: ChEMBL document CHEMBL4312023, “Design of novel monoamine oxidase-B inhibitors based on piperine scaffold: Structure-activity-toxicity, drug-likeness and efflux transport studies” (Eur J Med Chem, 2020)
pIC50, pKi: −log10 of the molar value.

Experiments:
[1] = Retention time of compound at pH 7.4 by LC-UV analysis; format: physicochemical; conditions: buffer
[2] = Chromatographic hydrophobicity index of compound at 250 uM at pH 7.4 by HPLC analysis; format: ADME; conditions: pH 7.4, 250 µM
[3] = biological target: T1, Amine oxidase [flavin-containing] A (Homo sapiens, UniProt P21397); conditions: BTI-TN-5B1-4, human, read-out: INH
T1 sequence (P21397 whole entry): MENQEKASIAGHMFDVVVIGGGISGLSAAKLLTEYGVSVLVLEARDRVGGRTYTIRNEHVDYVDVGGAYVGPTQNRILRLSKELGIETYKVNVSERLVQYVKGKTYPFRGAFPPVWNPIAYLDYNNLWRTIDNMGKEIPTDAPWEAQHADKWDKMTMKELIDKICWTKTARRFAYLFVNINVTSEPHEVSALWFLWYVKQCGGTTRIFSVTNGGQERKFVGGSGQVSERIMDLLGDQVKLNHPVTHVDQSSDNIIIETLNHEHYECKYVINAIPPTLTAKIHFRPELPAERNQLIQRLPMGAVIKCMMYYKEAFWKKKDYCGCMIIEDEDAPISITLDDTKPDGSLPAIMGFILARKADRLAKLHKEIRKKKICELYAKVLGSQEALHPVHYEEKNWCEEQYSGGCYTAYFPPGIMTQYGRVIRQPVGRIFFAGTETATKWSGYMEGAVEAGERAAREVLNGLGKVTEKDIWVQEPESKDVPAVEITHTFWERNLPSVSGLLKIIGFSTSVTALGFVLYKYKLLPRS
Description: Inhibition of human microsomal MAO-A expressed in baculovirus infected BTI-TN-5B1-4 cells assessed as reduction in 4-hydroxyquinoline formation at 10 uM using kynuramine as substrate preincubated with substrate for 10 mins followed by enzyme inhibition by spectrophotometric analysis

Homo sapiens = species on record: Homo sapiens; experiment: Selectivity index, ratio of IC50 for human microsomal MAO-A expressed in baculovirus infected […] cells to IC50 for human microsomal MAO-B expressed in baculovirus infected […] cells using kynuramine as substrate
[4] = biological target: T2, ATP-dependent translocase ABCB1 (Homo sapiens, UniProt P08183); experiment: Inhibition of P-gp in human Caco2 cells assessed as decrease in Rho123 efflux by measuring decrease in ratio between fluorescence intensity of Zos-inhibited Rho123 accumulation and fluorescence intensity of non-inhibited Rho123 accumulation at 10 uM using Rho123 as substrate preincubated for 30 mins in presence of 5 uM P-gp inhibitor, Zos followed by incubation with Rhodamine 123 for 90 mins by fluorescence spectroscopy analysis; format: cell-based; conditions: 1.5 h
T2 sequence (P08183 whole entry): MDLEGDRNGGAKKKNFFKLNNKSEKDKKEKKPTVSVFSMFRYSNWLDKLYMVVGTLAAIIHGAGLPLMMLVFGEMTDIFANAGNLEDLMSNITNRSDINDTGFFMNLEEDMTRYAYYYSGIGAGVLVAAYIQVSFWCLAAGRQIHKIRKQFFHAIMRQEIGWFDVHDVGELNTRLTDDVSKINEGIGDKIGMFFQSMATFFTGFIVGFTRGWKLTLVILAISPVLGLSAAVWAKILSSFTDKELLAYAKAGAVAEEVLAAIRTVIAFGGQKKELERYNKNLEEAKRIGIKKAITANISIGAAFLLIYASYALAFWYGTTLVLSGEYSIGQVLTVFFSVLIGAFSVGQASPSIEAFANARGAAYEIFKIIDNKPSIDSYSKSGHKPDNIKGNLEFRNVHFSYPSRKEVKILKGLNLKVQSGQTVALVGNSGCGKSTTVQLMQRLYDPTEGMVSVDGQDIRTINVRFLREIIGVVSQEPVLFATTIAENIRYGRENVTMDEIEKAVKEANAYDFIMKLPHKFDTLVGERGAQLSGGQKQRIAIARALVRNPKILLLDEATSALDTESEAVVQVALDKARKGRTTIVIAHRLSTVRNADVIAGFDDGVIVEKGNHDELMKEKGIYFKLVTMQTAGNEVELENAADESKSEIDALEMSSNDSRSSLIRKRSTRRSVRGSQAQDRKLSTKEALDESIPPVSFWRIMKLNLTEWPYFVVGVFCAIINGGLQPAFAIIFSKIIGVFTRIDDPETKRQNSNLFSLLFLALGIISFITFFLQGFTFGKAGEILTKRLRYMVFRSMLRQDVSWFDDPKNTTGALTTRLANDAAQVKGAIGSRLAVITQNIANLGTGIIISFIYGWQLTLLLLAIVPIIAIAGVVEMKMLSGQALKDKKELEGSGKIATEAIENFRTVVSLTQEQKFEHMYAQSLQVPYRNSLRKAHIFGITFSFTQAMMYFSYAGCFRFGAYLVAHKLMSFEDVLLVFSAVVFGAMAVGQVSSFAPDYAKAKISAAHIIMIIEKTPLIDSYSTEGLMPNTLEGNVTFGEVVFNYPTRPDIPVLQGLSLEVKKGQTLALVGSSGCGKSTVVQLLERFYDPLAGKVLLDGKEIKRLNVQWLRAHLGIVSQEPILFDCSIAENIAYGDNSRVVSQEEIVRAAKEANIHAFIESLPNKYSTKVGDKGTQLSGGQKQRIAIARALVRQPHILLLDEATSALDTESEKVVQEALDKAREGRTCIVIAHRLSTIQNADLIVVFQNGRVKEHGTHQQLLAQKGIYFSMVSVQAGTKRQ

[5] = (§1) Cytotoxicity against human SH-SY5Y cells assessed as cellular metabolic activity by measuring resazurin reduction at 10 to 50 uM incubated for 24 hrs followed by incubation with resazurin for 2 hrs by fluorescence based assay (reference value: >85%); format: ADME, cell-based; conditions: SH-SY5Y cells, read-out: Activity
[6] = Cytotoxicity against human Caco2 cells assessed as lysosomal activity by measuring neutral red uptake at 10 to 50 uM incubated for 24 hrs followed by incubation with neutral red solution for 1 hr by microplate reader analysis (reference value: >85%); format: cell-based; conditions: Caco-2 cells, read-out: Activity
[7] = biological target: T3, Amine oxidase [flavin-containing] B (Homo sapiens, UniProt P27338); experiment: biochemical; format: cell-based, BTI-TN-5B1-4
T3 sequence (P27338 whole entry): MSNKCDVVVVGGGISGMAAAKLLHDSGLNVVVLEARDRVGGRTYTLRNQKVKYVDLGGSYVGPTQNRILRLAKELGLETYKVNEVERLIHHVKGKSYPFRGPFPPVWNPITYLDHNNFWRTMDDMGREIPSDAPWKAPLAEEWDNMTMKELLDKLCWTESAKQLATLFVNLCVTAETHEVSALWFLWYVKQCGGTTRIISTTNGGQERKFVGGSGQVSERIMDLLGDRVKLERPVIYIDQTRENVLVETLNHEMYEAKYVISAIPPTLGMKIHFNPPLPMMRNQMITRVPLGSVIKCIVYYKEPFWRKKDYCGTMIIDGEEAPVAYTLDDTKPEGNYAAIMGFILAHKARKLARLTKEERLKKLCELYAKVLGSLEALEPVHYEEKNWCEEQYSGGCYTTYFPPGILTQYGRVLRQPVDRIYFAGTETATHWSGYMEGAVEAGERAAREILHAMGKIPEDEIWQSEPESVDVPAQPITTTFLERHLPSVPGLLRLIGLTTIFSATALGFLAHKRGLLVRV
Description: Inhibition of human microsomal MAO-B expressed in baculovirus infected BTI-TN-5B1-4 cells assessed as reduction in 4-hydroxyquinoline formation using kynuramine as substrate preincubated with substrate for 10 mins followed by enzyme addition by spectrophotometric analysis

[8] = Chromatographic hydrophobicity index, log D of compound at 250 uM at pH 7.4 by HPLC analysis; format: physicochemical; conditions: buffer
[9] = (§2) Cytotoxicity against human SH-SY5Y cells assessed as lysosomal activity by measuring neutral red uptake at 10 to 50 uM incubated for 24 hrs followed by incubation with neutral red solution for 2 hrs by microplate reader analysis (reference value: >85%); format: cell-based; conditions: SH-SY5Y cells, read-out: Activity
[10] = Cytotoxicity against human Caco2 cells assessed as cellular metabolic activity by measuring resazurin reduction at 10 to 50 uM incubated for 24 hrs followed by incubation with resazurin for 1 hr by fluorescence based assay (reference value: >85%); format: ADME, cell-based; conditions: Caco-2 cells, read-out: Activity
[11] = Cytotoxicity against human SH-SY5Y cells assessed as lysosomal activity by measuring neutral red uptake at 50 uM incubated for 24 hrs followed by incubation with neutral red solution for 2 hrs by microplate reader analysis (reference value: >85%); format: cell-based; conditions: read-out: Activity
[12] = Solubility of compound in sodium phosphate buffer at >10 uM at pH 7.4; format: physicochemical
[13] = Cytotoxicity against human SH-SY5Y cells assessed as cellular metabolic activity by measuring resazurin reduction at 50 uM incubated for 24 hrs followed by incubation with resazurin for 2 hrs by fluorescence based assay (reference value: >85 %); format: ADME, cell-based; conditions: read-out: Activity
[14] = biological target: T3, Amine oxidase [flavin-containing] B; experiment: Inhibition of human microsomal MAO-B expressed in baculovirus infected BTI-TN-5B1-4 cells assessed as reduction in 4-hydroxyquinoline formation at 10 uM using kynuramine as substrate preincubated with substrate for 10 mins followed by enzyme addition by spectrophotometric analysis; conditions: BTI-TN-5B1-4, human
[15] = biological target: T3, Amine oxidase [flavin-containing] B; experiment: Competitive inhibition of human microsomal MAO-B expressed in baculovirus infected BTI-TN-5B1-4 cells assessed as increase in substrate Km using kynuramine as substrate preincubated with substrate at varying concentrations for 10 mins followed by enzyme addition by Lineweaver-Burk plot analysis
[16] = biological target: T1, Amine oxidase [flavin-containing] A; experiment: biochemical
Description: Inhibition of human microsomal MAO-A expressed in baculovirus infected BTI-TN-5B1-4 cells assessed as reduction in 4-hydroxyquinoline formation using kynuramine as substrate preincubated with substrate for 10 mins followed by enzyme addition by spectrophotometric analysis

[17] = biological target: T2, ATP-dependent translocase ABCB1; experiment: Induction of P-gp in human Caco2 cells assessed as decrease in Rho123 intracellular accumulation by measuring increase in ratio between fluorescence intensity of Zos-inhibited Rho123 accumulation and fluorescence intensity of non-inhibited Rho123 accumulation at 10 uM using Rho123 as substrate preincubated for 30 mins in presence of 5 uM P-gp inhibitor, Zos followed by incubation with Rhodamine 123 for 90 mins by fluorescence spectroscopy analysis; format: cell-based; conditions: 1.5 h
[18] = biological target: T3, Amine oxidase [flavin-containing] B; experiment: Competitive inhibition of human microsomal MAO-B expressed in baculovirus infected BTI-TN-5B1-4 cells assessed as inhibition constant using kynuramine as substrate preincubated with substrate at varying concentrations for 10 mins followed by enzyme addition by Lineweaver-Burk plot analysis
[19] = biological target: T3, Amine oxidase [flavin-containing] B; experiment: Competitive inhibition of human microsomal MAO-B expressed in baculovirus infected BTI-TN-5B1-4 cells assessed as constant Vmax using kynuramine as substrate preincubated with substrate at varying concentrations for 10 mins followed by enzyme addition by Lineweaver-Burk plot analysis
[20] = biological target: T3, Amine oxidase [flavin-containing] B; experiment: Reversible inhibition of human microsomal MAO-B expressed in baculovirus infected BTI-TN-5B1-4 cells assessed as 4-hydroxyquinoline formation using kynuramine as substrate incubated up to 140 mins by spectrophotometric analysis; conditions: bti-tn-5b1-4, 140 min
SH-SY5Y [21] = experiment: as §1; format: ADME, cell-based; conditions: sh-sy5y, 24 h, 50 µM
SH-SY5Y [22] = experiment: as §2; format: cell-based; conditions: sh-sy5y, 24 h, 50 µM

Compound: COc1cc2c(c(OC)c1OC)-c1ccc(OC)c(=O)cc1[C@@H](NC(C)=O)CC2 [COLCHICINE]
- Retention_time [1]: 8.35 min
- CHI [2]: 44.32

Compound: N#C/C(=C\C=C\c1ccc2c(c1)OCO2)C(=O)OCCc1ccccc1
- inhibition at 10 µM [3]: < 50%
- Retention_time [1]: 12.37 min
- Ratio IC50 (Homo sapiens): > 101
- CHI [2]: 100.75
- inhibition (INH) [4]: Active
- viability at 24 h, up to 50 µM [5]: > 85%
- viability at 24 h [6]: > 85%
- pIC50 [7]: 7.00
- chromatographic logD at 250 µM [8]: 3.82
- viability at 24 h [9]: > 85%
- viability at 24 h, up to 50 µM [10]: > 85%

Compound: O=C(/C=C/C=C/c1ccc2c(c1)OCO2)Oc1ccccc1
- Ratio IC50 (Homo sapiens): > 64
- viability at 24 h, 50 µM [11]: 59.4%
- solubility [12]: Insoluble
- pIC50 [7]: 6.81
- viability at 24 h, 50 µM [13]: 79.7%

Compound: N#C/C(=C\C=C\c1ccc2c(c1)OCO2)C(=O)O
- inhibition at 10 µM [3]: < 50%
- inhibition at 10 µM [14]: < 50%

Compound: Cn1c(=O)c2c(ncn2C)n(C)c1=O [CAFFEINE]
- Retention_time [1]: 7.56 min
- CHI [2]: 24.12

Compound: O=C(O)/C=C/C=C/c1ccc2c(c1)OCO2 [PIPERIC ACID]
- inhibition at 10 µM [3]: < 50%
- inhibition at 10 µM [14]: < 50%

Compound: O=C(/C=C/C=C/c1ccc2c(c1)OCO2)OCc1ccccc1
- Retention_time [1]: 12.46 min
- Ratio IC50 (Homo sapiens): 25
- CHI [2]: 102.14
- inhibition (INH) [4]: Not Active
- inhibition (INH) [15]: Active
- viability at 24 h, up to 50 µM [5]: > 85%
- viability at 24 h [6]: > 85%
- pIC50 [7]: 6.78
- pIC50 [16]: 5.37
- Activity [17]: Not Active
- chromatographic logD at 250 µM [8]: 3.9
- pKi [18]: 7.12
- inhibition (INH) [19]: Active
- viability at 24 h [9]: > 85%
- viability at 24 h, up to 50 µM [10]: > 85%

Compound: NC(=O)N1c2ccccc2C=Cc2ccccc21 [CARBAMAZEPINE]
- Retention_time [1]: 9.3 min
- CHI [2]: 58.45

Compound: N#C/C(=C\C=C\c1ccc2c(c1)OCO2)C(=O)NCc1ccccc1
- inhibition at 10 µM [3]: < 50%
- Ratio IC50 (Homo sapiens): > 21
- pIC50 [7]: 6.33

Compound: O=C(/C=C/C=C/c1ccc2c(c1)OCO2)NCc1ccccc1
- inhibition at 10 µM [3]: < 50%
- inhibition at 10 µM [14]: < 50%

Compound: CCCC(=O)c1ccccc1 [BUTYROPHENONE]
- Retention_time [1]: 11.32 min
- CHI [2]: 88.49

Compound: N#C/C(=C\C=C\c1ccc2c(c1)OCO2)C(=O)Nc1ccccc1
- inhibition at 10 µM [3]: < 50%
- inhibition at 10 µM [14]: < 50%

Compound: O=C(/C=C/C=C/c1ccc2c(c1)OCO2)OCCc1ccccc1
- inhibition at 10 µM [3]: < 50%
- Ratio IC50 (Homo sapiens): > 22
- pIC50 [7]: 6.35

Compound: c1ccc2[nH]cnc2c1 [BENZIMIDAZOLE]
- Retention_time [1]: 8 min
- CHI [2]: 30.71

Compound: c1ccc2[nH]ccc2c1 [INDOLE]
- Retention_time [1]: 10.27 min
- CHI [2]: 69.15

Compound: C[C@H](NCc1ccc(OCc2cccc(F)c2)cc1)C(N)=O [SAFINAMIDE]
- inhibition (INH) [20]: Active

Compound: CCCCCCC(=O)c1ccccc1
- Retention_time [1]: 13.67 min
- CHI [2]: 111.8

Compound: O=C(/C=C/C=C/c1ccc2c(c1)OCO2)NCCc1ccccc1
- inhibition at 10 µM [3]: < 50%
- inhibition at 10 µM [14]: < 50%

Compound: CCCCC(=O)c1ccccc1 [VALEROPHENONE]
- Retention_time [1]: 12.04 min
- CHI [2]: 97.67

Compound: N#C/C(=C\C=C\c1ccc2c(c1)OCO2)C(=O)NCCc1ccccc1
- inhibition at 10 µM [3]: < 50%
- inhibition at 10 µM [14]: < 50%

Compound: CCC(=O)c1ccccc1 [PROPIOPHENONE]
- Retention_time [1]: 10.63 min
- CHI [2]: 78.41

Compound: O=C(/C=C/C=C/c1ccc2c(c1)OCO2)N1CCCCC1 [PIPERINE]
- inhibition at 10 µM [3]: < 50%
- Retention_time [1]: 10.61 min
- Ratio IC50 (Homo sapiens): 10
- CHI [2]: 73.45
- inhibition (INH) [4]: Not Active
- Activity (SH-SY5Y [21]): Non-Toxic
- pIC50 [7]: 5.98
- Activity [17]: Not Active
- chromatographic logD at 250 µM [8]: 2.39
- Activity (SH-SY5Y [22]): Non-Toxic

Compound: O=C(/C=C/C=C/c1ccc2c(c1)OCO2)Nc1ccccc1
- inhibition at 10 µM [3]: < 50%
- inhibition at 10 µM [14]: < 50%

Compound: CC(=O)Nc1ccc(O)cc1 [ACETAMINOPHEN]
- Retention_time [1]: 7.45 min
- CHI [2]: 20.59

Compound: Cn1c(=O)c2[nH]cnc2n(C)c1=O.O [THEOPHYLLINE]
- Retention_time [1]: 7.31 min
- CHI [2]: 18.19

Compound: N#C/C(=C\C=C\c1ccc2c(c1)OCO2)C(=O)Oc1ccccc1
- inhibition at 10 µM [3]: < 50%
- Ratio IC50 (Homo sapiens): > 47
- pIC50 [7]: 6.67
